Test results taken from EP2363135B1, “Anti-jellyfish compositions” (Antonio Puig, S.A., priority 2010, dated 2011).
Read-outs that look alike come from different tables or passages of the source.

Legend:
[1] = system: Pelagia noctiluca; assay: in vitro inhibition of cnidocyst discharge, physical contact with a gelatin probe; format: cell-based; conditions: 0.5 M in gelatin probe; for Discharged cnidocysts/mm^2 (%): control = 100; for Inhibition (%): versus control
Experimental: The efficacy of plant extracts and phytocompounds, in inhibiting cnidocyst discharge of Pelagia noctiluca (which is one of the most common species along the Mediterranean Sea) was evaluated by physical contact with a gelatin probe. Said probes, besides stimulating the cnidocyte battery, retained the different types of discharged cnidocysts that can have different sizes, thereby allowing a quantitative evaluation of the response.
Each gelatin probe was made coating one end of a 6 cm length of monofilament fishing line (1 mm diameter) with 25% (w/v) gelatin in deionized water and then placed in a humidified atmosphere during 30 minutes for gelatin solidification. The different substances to be tested were dissolved in deionized water at selected concentrations before the addition of gelatin: oat extract (Burgundi Cosmetics) and tea extract (Symrise lberica) were used at a final concentration of active agent of 0.025 % (w/v); dipotassium glycyrrhizate and hydroxytyrosol were used at a concentration of 0.5 M. Plain gelatin covered probes (no embebed active compound) were used as controls and represented maximum discharge figures.
After solidification, each gelatin probe was gently wiped across oral arms of Pelagia noctiluca 5 times from 1 to 5 seconds in the tanks. The probes were then placed in humidified atmosphere plates and observed under a steroemicroscope for cnidocyst quantification. Individual cnidocysts that had discharged into the gelatin probes were counted in 7 different fields of view and the mean value was calculated. Results are the average of triplicate probes.
An inhibitory effect was considered if the substance diminished the number of discharged nematocytes per mm^2 of gelatin probe as compared with controls.
The graphical representation of the interaction between two active compounds could be expressed as follows. […] The straight line connecting the effects of both substances on their own is the locus of points that will produce this effect in a simple additive combination, the additivity line.
FIG. 1 and FIG. 2 represent, respectively, the interaction between oat extract and lanthanum and tea extract and lanthanum in the inhibition of cnidocyst discharge. The number of discharged cnidocysts in Pelagia noctiluca was analysed for each combination of active agents by physical contact with a gelatin probe as described in Example 2. The doses of each of the constituents are referred as concentrations of active agent, i.e. of pure oat or green tea extract, and lanthanum cation.

[2] = system: in situ cnidocytes of Pelagia noctiluca (Scyphozoa); conditions: cited from earlier work

| Compound | Discharged cnidocysts/mm^2 (%) [1] | Inhibition (%) [1] | cnidocyst discharge ([2]; oral arms previously treated with 20 µmol/L) | cnidocyst discharge ([2]; oral arms previously treated with 2 mmol/L) |
| --- | --- | --- | --- | --- |
| CC1(C)[C@@H](O[C@H]2O[C@H](C(=O)O)[C@@H](O)[C@H](O)[C@H]2O[C@@H]2O[C@H](C(=O)O)[C@@H](O)[C@H](O)[C@H]2O)CC[C@]2(C)[C@H]3C(=O)C=C4[C@@H]5C[C@@](C)(C(=O)O)CC[C@]5(C)CC[C@@]4(C)[C@]3(C)CC[C@@H]12 [Dipotassium glycyrrhizate, dipotassium glycyrrhizate] | 32,7% | -67,3% |  |  |
| [Gd+3] [Gd^3+, gadolinium] |  |  | the discharge was inhibited |  |
| [La+3] [La^3+, lanthanum] |  |  |  | the discharge was inhibited |
| OCCc1ccc(O)c(O)c1 [WHidroxytyrosol, hydroxytyrosol] | 43,6% | -56,4% |  |  |
